In patent EP0745599A2, “1-(3-Heterocyclylphenyl)-s-triazine-2,4,6-oxo or thiotrione herbicidal agents” (American Cyanamid Company, priority 1995, dated 1996):

How the values were obtained:
Format in all cases: in vivo
Settings in all cases: rated four to five weeks after treatment
[1] = tested on: ABUTILON THEOPHRASTI, MEDIC.; test: Preemergence herbicidal evaluation, ABUTH (Velvetleaf)
In short: (§1)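 Preemergence soil spray, aqueous acetone, ~0.125–0.50 kg/ha; greenhouse, 4–5 wk; visual 0-9 rating vs untreated control (stand, vigor, malformation, size, chlorosis, appearance).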

GALIUM APARINE = test: Preemergence herbicidal evaluation, GALAP (Galium)
In short: as §1

ZEA MAYS L. [2] = test: Preemergence herbicidal evaluation, ZEAMX (Corn, Field)
In short: as §1

CASSIA OBTUSIFOLIA, L. [3] = test: Preemergence herbicidal evaluation, CASOB (Sicklepod)
In short: as §1

[4] = tested on: GLYCINE MAX(L)MERR. CV. WILLIAMS; test: Preemergence herbicidal evaluation, GLXMAW (Soybean, Williams)
In short: as §1

CASSIA OBTUSIFOLIA, L. [5] = test: Postemergence herbicidal evaluation, CASOB (Sicklepod)
In short: (§2)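 Compound is dispersed in 50/50 acetone/water containing 0.5% TWEEN®20 and sprayed at 40 psi onto seedlings about two weeks old, delivering about 0.125–0.500 kg/ha. Injury is scored 0–9 four to five weeks later.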

[6] = tested on: AMBROSIA ARTEMISIIFOLIA, L.; test: Preemergence herbicidal evaluation, AMBEL (Ragweed, Common)
In short: as §1

[7] = tested on: TRITICUM AESTIVUM, CV. APOLLO; test: Preemergence herbicidal evaluation, TRZAWO (Wheat, Winter, CV. APOLLO)
In short: as §1

[8] = tested on: SETARIA VIRIDIS, (L) BEAU; test: Preemergence herbicidal evaluation, SETVI (Foxtail, Green)
In short: as §1

CHENOPODIUM ALBUM, L. [9] = test: Preemergence herbicidal evaluation, CHEAL (Lambsquarters, Common)
In short: as §1

[10] = tested on: ECHINOCHLOA CRUS-GALLI, (L) BEAU; test: Preemergence herbicidal evaluation, ECHCG (Barnyardgrass)
In short: as §1

[11] = tested on: AMBROSIA ARTEMISIIFOLIA, L.; test: Postemergence herbicidal evaluation, AMBEL (Ragweed, Common)
Experimental: (§3) In the tests, seedling plants are grown in jiffy flats for about two weeks. The test compounds are dispersed in 50/50 acetone/water mixtures containing 0.5% TWEEN®20, a polyoxyethylene sorbitan monolaurate surfactant of Atlas Chemical Industries, in sufficient quantities to provide the equivalent of about 0.125 kg to 0.500 kg per hectare of active compound when applied to the plants through a spray nozzle operating at 40 psi for a predetermined time. After spraying, the plants are placed on greenhouse benches and are cared for in the usual manner, commensurate with conventional greenhouse practices. From four to five weeks after treatment, the seedling plants are examined and rated according to the rating system set forth below. Where more than one test is involved for a given compound, the data are averaged.
(§4) Results of herbicide evaluation are expressed on a rating scale (0-9). The scale is based upon a visual observation of plant stand, vigor, malformation, size, chlorosis and overall plant appearance as compared with a control.

[12] = tested on: ORYZA SATIVA, L. TEBONNET; test: Preemergence herbicidal evaluation, ORYSAT (Rice, Tebonnet)
In short: as §1

[13] = tested on: ECHINOCHLOA CRUS-GALLI, (L) BEAU; test: Postemergence herbicidal evaluation, ECHCG (Barnyardgrass)
In short: as §2

IPOMOEA SPP. = test: Preemergence herbicidal evaluation, IPOSS (Morningglory Spp.)
In short: as §1

CHENOPODIUM ALBUM, L. [14] = test: Postemergence herbicidal evaluation, CHEAL (Lambsquarters, Common)
Experimental: as §3, §4

[15] = tested on: ORYZA SATIVA, L. TEBONNET; test: Postemergence herbicidal evaluation, ORYSAT (Rice, Tebonnet)
Experimental: as §3, §4

ZEA MAYS L. [16] = test: Postemergence herbicidal evaluation, ZEAMX (Corn, Field)
Experimental: as §3, §4

[17] = tested on: ABUTILON THEOPHRASTI, MEDIC.; test: Postemergence herbicidal evaluation, ABUTH (Velvetleaf)
Experimental: as §3, §4

COC(=O)Cn1c(=O)n(C)c(=O)n(-c2cc(N3C(=O)C4=C(CCCC4)C3=O)ccc2F)c1=O [Compound 5, Methyl 3-[5-(1-cyclohexene-1,2-dicarbox-imido)-2-fluorophenyl]tetrahydro-5-methyl-2,4,6-trioxo-s-triazine-1(2H)-acetate]
Herbicide rating (0-9) ABUTH ([1]; 0.125 kg/ha): 0.0
Herbicide rating (0-9) ABUTH ([1]; 0.250 kg/ha): 0.0
Herbicide rating (0-9) ABUTH ([1]; 0.500 kg/ha): 0.0
Herbicide rating (0-9) GALAP (GALIUM APARINE; 0.125 kg/ha): 0.0
Herbicide rating (0-9) GALAP (GALIUM APARINE; 0.250 kg/ha): 0.0
Herbicide rating (0-9) GALAP (GALIUM APARINE; 0.500 kg/ha): 0.0
Herbicide rating (0-9) ZEAMX (ZEA MAYS L. [2]; 0.125 kg/ha): 0.0
Herbicide rating (0-9) ZEAMX (ZEA MAYS L. [2]; 0.250 kg/ha): 0.0
Herbicide rating (0-9) ZEAMX (ZEA MAYS L. [2]; 0.500 kg/ha): 0.0
Herbicide rating (0-9) CASOB (CASSIA OBTUSIFOLIA, L. [3]; 0.125 kg/ha): 0.0
Herbicide rating (0-9) CASOB (CASSIA OBTUSIFOLIA, L. [3]; 0.250 kg/ha): 0.0
Herbicide rating (0-9) CASOB (CASSIA OBTUSIFOLIA, L. [3]; 0.500 kg/ha): 0.0
Herbicide rating (0-9) GLXMAW ([4]; 0.125 kg/ha): 0.0
Herbicide rating (0-9) GLXMAW ([4]; 0.250 kg/ha): 0.0
Herbicide rating (0-9) GLXMAW ([4]; 0.500 kg/ha): 0.0
Herbicide rating (0-9) CASOB (CASSIA OBTUSIFOLIA, L. [5]; 0.125 kg/ha): 0.0
Herbicide rating (0-9) CASOB (CASSIA OBTUSIFOLIA, L. [5]; 0.250 kg/ha): 0.0
Herbicide rating (0-9) CASOB (CASSIA OBTUSIFOLIA, L. [5]; 0.500 kg/ha): 0.0
Herbicide rating (0-9) AMBEL ([6]; 0.125 kg/ha): 0.0
Herbicide rating (0-9) AMBEL ([6]; 0.250 kg/ha): 0.0
Herbicide rating (0-9) AMBEL ([6]; 0.500 kg/ha): 0.0
Herbicide rating (0-9) TRZAWO ([7]; 0.125 kg/ha): 0.0
Herbicide rating (0-9) TRZAWO ([7]; 0.250 kg/ha): 0.0
Herbicide rating (0-9) TRZAWO ([7]; 0.500 kg/ha): 0.0
Herbicide rating (0-9) SETVI ([8]; 0.125 kg/ha): 0.0
Herbicide rating (0-9) SETVI ([8]; 0.250 kg/ha): 0.0
Herbicide rating (0-9) SETVI ([8]; 0.500 kg/ha): 0.0
Herbicide rating (0-9) CHEAL (CHENOPODIUM ALBUM, L. [9]; 0.125 kg/ha): 0.0
Herbicide rating (0-9) CHEAL (CHENOPODIUM ALBUM, L. [9]; 0.250 kg/ha): 0.0
Herbicide rating (0-9) CHEAL (CHENOPODIUM ALBUM, L. [9]; 0.500 kg/ha): 0.0
Herbicide rating (0-9) ECHCG ([10]; 0.125 kg/ha): 0.0
Herbicide rating (0-9) ECHCG ([10]; 0.250 kg/ha): 0.0
Herbicide rating (0-9) ECHCG ([10]; 0.500 kg/ha): 0.0
Herbicide rating (0-9) AMBEL ([11]; 0.125 kg/ha): 2.0
Herbicide rating (0-9) AMBEL ([11]; 0.250 kg/ha): 2.0
Herbicide rating (0-9) AMBEL ([11]; 0.500 kg/ha): 2.0
Herbicide rating (0-9) ORYSAT ([12]; 0.125 kg/ha): 0.0
Herbicide rating (0-9) ORYSAT ([12]; 0.250 kg/ha): 0.0
Herbicide rating (0-9) ORYSAT ([12]; 0.500 kg/ha): 0.0
Herbicide rating (0-9) ECHCG ([13]; 0.125 kg/ha): 0.0
Herbicide rating (0-9) ECHCG ([13]; 0.250 kg/ha): 0.0
Herbicide rating (0-9) ECHCG ([13]; 0.500 kg/ha): 0.0
Herbicide rating (0-9) IPOSS (IPOMOEA SPP.; 0.125 kg/ha): 0.0
Herbicide rating (0-9) IPOSS (IPOMOEA SPP.; 0.250 kg/ha): 0.0
Herbicide rating (0-9) IPOSS (IPOMOEA SPP.; 0.500 kg/ha): 0.0
Herbicide rating (0-9) CHEAL (CHENOPODIUM ALBUM, L. [14]; 0.125 kg/ha): 0.0
Herbicide rating (0-9) CHEAL (CHENOPODIUM ALBUM, L. [14]; 0.250 kg/ha): 0.0
Herbicide rating (0-9) CHEAL (CHENOPODIUM ALBUM, L. [14]; 0.500 kg/ha): 0.0

CC(C)OC(=O)Cn1c(=O)n(C)c(=O)n(-c2cc(N3C(=O)C4=C(CCCC4)C3=O)c(F)cc2Cl)c1=O [Compound 4, Isopropyl 3-[2-chloro-5-(1-cyclohexene-1,2-dicarboximido)-4-fluorophenyl]tetrahydro-5-methyl-2,4,6-trioxo-s-triazine-1(2H)-acetate]
Herbicide rating (0-9) GALAP (GALIUM APARINE; 0.125 kg/ha): 9.0
Herbicide rating (0-9) GALAP (GALIUM APARINE; 0.250 kg/ha): 9.0
Herbicide rating (0-9) GALAP (GALIUM APARINE; 0.500 kg/ha): 9.0
Herbicide rating (0-9) GLXMAW ([4]; 0.125 kg/ha): 0.0
Herbicide rating (0-9) GLXMAW ([4]; 0.250 kg/ha): 0.0
Herbicide rating (0-9) GLXMAW ([4]; 0.500 kg/ha): 0.0
Herbicide rating (0-9) CHEAL (CHENOPODIUM ALBUM, L. [9]; 0.125 kg/ha): 9.0
Herbicide rating (0-9) CHEAL (CHENOPODIUM ALBUM, L. [9]; 0.250 kg/ha): 9.0
Herbicide rating (0-9) CHEAL (CHENOPODIUM ALBUM, L. [9]; 0.500 kg/ha): 9.0
Herbicide rating (0-9) ORYSAT ([15]; 0.125 kg/ha): 4.0
Herbicide rating (0-9) ORYSAT ([15]; 0.250 kg/ha): 4.0
Herbicide rating (0-9) ORYSAT ([15]; 0.500 kg/ha): 4.0
Herbicide rating (0-9) ECHCG ([10]; 0.125 kg/ha): 0.0
Herbicide rating (0-9) ECHCG ([10]; 0.250 kg/ha): 0.0
Herbicide rating (0-9) ECHCG ([10]; 0.500 kg/ha): 0.0
Herbicide rating (0-9) ZEAMX (ZEA MAYS L. [16]; 0.125 kg/ha): 4.5
Herbicide rating (0-9) ZEAMX (ZEA MAYS L. [16]; 0.250 kg/ha): 4.5
Herbicide rating (0-9) ZEAMX (ZEA MAYS L. [16]; 0.500 kg/ha): 4.5
Herbicide rating (0-9) ABUTH ([17]; 0.125 kg/ha): 9.0
Herbicide rating (0-9) ABUTH ([17]; 0.250 kg/ha): 9.0
Herbicide rating (0-9) ABUTH ([17]; 0.500 kg/ha): 9.0
